Experimental data: patent publication US20210386721A1, “SUBSTITUTED PHENYLPROPENYL PYRIDINE DERIVATIVES, THEIR PREPARATION AND PHARMACEUTICAL APPLICATIONS” (SHANGHAI HAIYAN PHARMACEUTICAL TECHNOLOGY CO., LTD., priority 2019, published 2021)

Key:
[1] = test system: Jurkat T(PD1 Luc-)/CHOK1(PDL-1); assay: Jurkat T(PD1 Luc-)/CHOK1(PDL-1) cell experiment (luciferase reporter); assay type: cell-based; conditions: CHO/PD-L1-OKT3 cells co-cultured with Jurkat/PD1-NFAT-Luc cells for 6 hours; Bio-Glo luciferase signal
Procedure: Assay 2 Jurkat T(PD1 Luc-)/CHOK1(PDL-1) Cell Experiment
G418, Sangon Biotech #A100859-0001, Cat Number G108BA0003, 5 ml of deionized water being added into each bottle, store at 4° C.
CHO/PD-L1-OKT3 cells (constructed by referring to Promega's PD-1/PD-L1 Blockade Bioassays system) cultured in F-12K medium (containing 10% FBS, 800 ug/ml G418, 400 ug/ml D Hygromycin B) were planted into a 96-well plate at 2×10^4 per well, and incubated for 24 hours at 37° C. and 5% CO2. part of the medium was removed, and the test compound dissolved in DMSO with a final concentration of 1 uM was added, and DMSO at the same concentration was added into the control cells. Jurkat/PD1-NFAT-Luc cells (constructed by referring to Promega's PD-1/PD-L1 Blockade Bioassays system) were added at 5×10^5 per well at the same time, and cultured for 6 hours. The corresponding luciferase signal was detected by Bio-Glo™ (Promega, G7940) reagent. The EC50 of each compound to be tested was calculated through the non-linear regression of XLfit software.

PD-1/PD-L1 = biological target: T1, PD-1/PD-L1 (Homo sapiens, UniProt Q9NZQ7); assay: PD-1/PD-L1 binding assay (HTRF, PPI-HTRF); conditions: HTRF PD1/PD-L1 binding assay kit; 10 nM Tag1-PD-L1; 25° C.
T1 construct: purchased Cisbio 63ADK000CPDPEB
Procedure: Assay 1 PD-1/PD-L1 Binding Assay
DMSO is from Sigma, Cat No: D5879; 384-well small volume plate (white) is from Greiner, Cat No: 784075; Anti-PD1 blocking antibody (IC50: 10 nM) is from Cisbio, Cat No: 64CUS000C-1a; Anti-PDL1 blocking antibody (IC50: 0.3 nM) is from Cisbio, Cat No: 64CUS000C-1b; HTRF PD1/PD-L1 binding assay kit is from Cisbio, Cat No: 63ADK000CPDPEB.
1. Prepare the compound to be tested at 2x concentration into 1× reaction buffer containing 4% DMSO;
2. Tag1-PD-L1 protein and Tag2-PD1 protein were prepared in 1× reaction buffer at concentrations of […] and 10 nM, respectively. The final reaction concentration of the experiment was 10 nM Tag1-PD-L1 and 2 nM […];
3. anti-Tag1-Eu3+ antibody is prepared in 1x concentration detection buffer at a ratio of 1:100;
4. anti-Tag2-XL665 antibody is prepared in 1x concentration detection buffer at a ratio of 1:25; Experimental steps
1. 5 μL of compounds to be tested (2×) was added;
2. 2.5 ul Tag1-PD-L1 protein and 2.5 ul Tag2-PD1 protein were added respectively, and the total reaction system is 10 ul, and reacted at 25° C. for 15 minutes;
3. 5 ul anti-Tag1-Eu3+ antibody and 5 ul anti-Tag2-XL665 antibody were added respectively, and reacted at 25° C. for 16 hours;
4. The fluorescence microplate reader HTRF reading program was used to read two readings at 665 nm and 620 nm, the ratio of the two wavelengths was used to judge the activity of the compound, and the IC50 of the compound to be tested is calculated by XLFIT5.0 (IDBS).

T1 sequence (Q9NZQ7 19-238 limits assumed): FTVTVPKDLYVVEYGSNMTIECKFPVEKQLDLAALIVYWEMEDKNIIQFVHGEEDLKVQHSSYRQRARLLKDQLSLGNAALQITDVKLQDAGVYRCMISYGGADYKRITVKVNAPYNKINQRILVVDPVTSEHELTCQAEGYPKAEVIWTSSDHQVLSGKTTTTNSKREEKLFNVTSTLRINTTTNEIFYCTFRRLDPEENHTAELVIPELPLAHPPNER

| Structure (SMILES) | IC50 (PD-1/PD-L1) [nM] | EC50 [1] [nM] |
| --- | --- | --- |
| COc1cc(/C=C/c2cccc(-c3cccc(NC(=O)c4cc(OC)c(CN5CC[C@@H](O)C5)cn4)c3C)c2C)c(C(F)(F)F)cc1CNC[C@@H](O)CC(=O)O [Z-118, (S)-3-hydroxy-4-((4-((E)-2-(3′-(5-(((R)-3-hydroxypyrrolidin-1-yl)methyl)-4-methoxypicolinamido)-2,2′-dimethyl-[1,1′-biphenyl]-3-yl)vinyl)-2-methoxy-5-(trifluoromethyl)benzyl)amino) butanoic Acid] | 1 | 13 |
| COc1cc(/C=C/c2cccc(-c3cccc(-c4nc5c(C#N)cc(CN6CC[C@@H](C(=O)O)C6)cn5n4)c3C)c2C)c(C(F)(F)F)cc1CN1CC[C@@H](O)C1 [Z-53, (R)-1-((8-cyano-2-(3′-((E)-4-(((R)-3-hydroxypyrrolidin-1-yl)methyl)-5-methoxy-2-(trifluoromethyl)styryl)-2,2′-dimethyl-[1,1′-biphenyl]-3-yl)-[1,2,4]triazolo[1,5-a]pyridin-6-yl)methyl) pyrrolidine-3-carboxylic Acid] | 1 | 28 |
| COc1cc(C(=O)Nc2cccc(-c3cccc(/C=C/c4cc(OC)c(CN5CCC(C)(C(=O)O)C5)cc4C(F)(F)F)c3C)c2C)ncc1CN1CC[C@@H](O)C1 (stereo partly shown) [Z-121] | 1 | 31 |
| COc1cc(/C=C/c2cccc(-c3cccc(NC(=O)c4ccc(CN5CC[C@@H](O)C5)cn4)c3Cl)c2C)c(C(F)(F)F)cc1CNC[C@@H](O)CC(=O)O [Z-107] | 1 | 16 |
| COc1cc(/C=C/c2cccc(-c3cccc(NC(=O)c4ccc(CN5CC[C@@H](O)C5)cn4)c3C)c2Cl)c(C(F)(F)F)cc1CN1CC[C@@H](C(=O)O)C1 [Z-85] | 1 | 34 |
| Cc1cc(/C=C/c2nccc(-c3cccc(NC(=O)c4ccc(CNCCO)cn4)c3C)c2C#N)c(Cl)cc1CNCCO [Z-1, (E)-N-(3-(2-(2-chloro-4-(((2-hydroxyethyl)amino)methyl)-5-methylstyryl)-3-cyanopyridin-4-yl)-2-methylphenyl)-5-(((2-hydroxyethyl)amino)methyl)picolinamide] | 1 | 162 |
| COc1cc(/C=C/c2cccc(-c3cccc(NC(=O)c4nc5c(n4C)CCN(C)C5)c3Cl)c2C)c(C(F)(F)F)cc1CN1CCCC[C@H]1C(=O)O [Z-108, (S,E)-1-(4-(2-(2′-chloro-3′-(1,5-dimethyl-4,5,6,7-tetrahydro-1H-imidazo[4,5-c]pyridine-2-carboxamido)-2-methyl-[1,1′-biphenyl]-3-yl)vinyl)-2-methoxy-5-(trifluoromethyl)benzyl)piperidine-2-carboxylic Acid] | 2 | 57 |
| COc1cc(/C=C/c2cccc(-c3cccc(-c4cnc(CN5CC[C@@H](O)C5)c(OC)n4)c3C)c2C)c(C(F)(F)F)cc1CN1CC[C@@H](C(=O)O)C1 [Z-57] | 1 | 66 |
| COc1cc(/C=C/c2ccnc(-c3cccc(-c4nc5cc(CN6CC[C@@H](O)C6)cc(C#N)c5o4)c3C)c2Cl)c(C(F)(F)F)cc1CN1CC[C@@H](C(=O)O)C1 [Z-52] | 1 | 153 |
| COc1cc(C(=O)Nc2cccc(-c3cccc(/C=C/c4cc(OC)c(CN5CCC[C@H]5C(=O)O)cc4C(F)(F)F)c3C)c2C)ncc1CN1CC[C@@H](O)C1 [Z-115] | 1 | 31 |
| COc1cc(/C=C/c2cccc(-c3cccc(NC(=O)c4ccc(CNCCS(C)(=N)=O)cn4)c3C)c2C)c(C(F)(F)F)cc1CN1CC[C@@H](C(=O)O)C1 (stereo partly drawn) [Z-109, (3R)-1-(4-((E)-2-(2,2′-dimethyl-3′-(5-(((2-(S-methylsulfonimidoyl)ethyl)amino)methyl)picolinamido)-[1,1′-biphenyl]-3-yl)vinyl)-2-methoxy-5-(trifluoromethyl)benzyl)pyrrolidine-3-carboxylic Acid] | 1 | 121 |
| Cc1cc(/C=C/c2cccc(-c3cccc(Nc4nccc5cc(CN6CC[C@@H](O)C6)cnc45)c3C)c2C)c(C(F)(F)F)cc1CN1CC[C@@H](C(=O)O)C1 [Z-9] | 1 | 48 |
| COc1cc(/C=C/c2cccc(-c3cccc(NC(=O)c4ccc(CN5CC[C@@H](O)C5)cn4)c3Cl)c2C)c(C(F)(F)F)cc1CN1CCC[C@H]1C(=O)O [Z-92] | 1 | 6 |
| COc1cc(/C=C/c2cccc(-c3cccc(NC(=O)c4ccc(CN5CC[C@@H](O)C5)cn4)c3C(F)(F)F)c2C#N)c(C(F)(F)F)cc1CN1CC[C@@H](C(=O)O)C1 [Z-98] | 2 | 174 |
| COc1cc(/C=C/c2cccc(-c3cccc(-c4nc5cc(CN6CC[C@@H](C(=O)O)C6)cc(C#N)c5o4)c3C)c2Cl)c(C(F)(F)F)cc1CN1CC[C@@H](O)C1 [Z-38] | 1 | 83 |
| COc1cc(/C=C/c2cccc(-c3cccc(NC(=O)c4ccc(CN5CC[C@@H](O)C5)cn4)c3Cl)c2C)c(C(F)(F)F)cc1CN1CCC(C(=O)O)CC1 [Z-89] | 1 | 16 |
| COc1cc(/C=C/c2cccc(-c3cccc(NC(=O)c4nc5c(n4C)CCN([C@H]4CC[C@H](O)CC4)C5)c3C)c2C)c(C(F)(F)F)cc1CN1CC[C@@H](C(=O)O)C1 [Z-132, (R)-1-(4-((E)-2-(3′-(5-((1r,4r)-4-hydroxycyclohexyl)-1-methyl-4,5,6,7-tetrahydro-1H-imidazo[4,5-c]pyridine-2-carboxamido)-2,2′-dimethyl-[1,1′-biphenyl]-3-yl)vinyl)-2-methoxy-5-(trifluoromethyl)benzyl)pyrrolidine-3-carboxylic Acid] | 1 | 168 |
| COc1cc(/C=C/c2cccc(-c3cccc(-c4nc5cc(CN6CC[C@@H](C(=O)O)C6)cc(C(N)=O)c5o4)c3C)c2C)c(C(F)(F)F)cc1CN1CC[C@@H](O)C1 [Z-27, (R)-1-((7-carbamoyl-2-(3′-((E)-4-(((R)-3-hydroxypyrrolidin-1-yl)methyl)-5-methoxy-2-(trifluoromethyl)styryl)-2,2′-dimethyl-[1,1′-biphenyl]-3-yl)benzo[d]oxazol-5-yl)methyl)pyrrolidine-3-carboxylic Acid] | 1 | 176 |

Second part, led by results:

| IC50 (PD-1/PD-L1) [nM] | Structure (SMILES) | EC50 [1] [nM] |
| --- | --- | --- |
| 1 | COc1cc(/C=C/c2cccc(-c3cccc(NC(=O)c4ccc(CN5CC[C@@H](O)C5)cn4)c3Cl)c2C)c(C(F)(F)F)cc1CN1CCC(C)(C(=O)O)C1 (stereo partly drawn) [Z-87, 1-(4-((E)-2-(2′-chloro-3′-(5-(((R)-3-hydroxypyrrolidin-1-yl)methyl)picolinamido)-2-methyl-[1,1′-biphenyl]-3-yl)vinyl)-2-methoxy-5-(trifluoromethyl)benzyl)-3-methylpyrrolidine-3-carboxylic Acid] | 26 |
| 1 | Cc1cc(/C=C/c2cccc(-c3cccc(NC(=O)c4ccc(CN5CC[C@@H](O)C5)cn4)c3C)c2C)c(C2CC2)cc1CN1CC[C@@H](C(=O)O)C1 [Z-91] | 147 |
| 1 | COc1cc(/C=C/c2cccc(-c3cccc(NC(=O)c4ccc(CN5CC[C@@H](O)C5)cn4)c3C)c2C)c(C(F)(F)F)cc1CN1CC[C@@H](C(=O)O)C1 [Z-84] | 25 |
| 1 | COc1cc(/C=C/c2ccnc(-c3cccc(Nc4nccc5cc(CN6CC[C@@H](O)C6)cnc45)c3C)c2Cl)c(C(F)(F)F)cc1CN1CC[C@@H](C(=O)O)C1 [Z-12] | 153 |
| 1 | COc1cc(/C=C/c2cccc(-c3cccc(NC(=O)c4ccc(CN5CC[C@@H](O)C5)cn4)c3C)c2C#N)c(C(F)(F)F)cc1CN1CC[C@@H](C(=O)O)C1 [Z-94] | 10 |
| < 1 | COc1cc(/C=C/c2cccc(-c3cccc(NC(=O)c4ccc(CN5CC[C@@H](O)C5)cn4)c3F)c2Cl)c(C(F)(F)F)cc1CN1CC[C@@H](C(=O)O)C1 [Z-96] | 10 |
| ≤ 1 | COc1cc(C(=O)Nc2cccc(-c3cccc(/C=C/c4cc(OC)c(CN5CC[C@@H](O)C5)cc4C(F)(F)F)c3C)c2C)ncc1CN1CC[C@@H](O)C1 [Z-135] | 44 |
| < 1 | COc1cc(/C=C/c2cccc(-c3cccc(NC(=O)c4ccc(CN5CC[C@@H](O)C5)cn4)c3Cl)c2C#N)c(C(F)(F)F)cc1CN1CC[C@@H](C(=O)O)C1 [Z-95] | 4 |
